In the series the target is T1, TLR9 (Mus musculus, UniProt Q9EQU3).
T1 construct: from tissue; host or cells: whole animal: C57BL/6, FVB and FVB GADD34ΔC/ΔC mice
T1 sequence (Q9EQU3 26-1032): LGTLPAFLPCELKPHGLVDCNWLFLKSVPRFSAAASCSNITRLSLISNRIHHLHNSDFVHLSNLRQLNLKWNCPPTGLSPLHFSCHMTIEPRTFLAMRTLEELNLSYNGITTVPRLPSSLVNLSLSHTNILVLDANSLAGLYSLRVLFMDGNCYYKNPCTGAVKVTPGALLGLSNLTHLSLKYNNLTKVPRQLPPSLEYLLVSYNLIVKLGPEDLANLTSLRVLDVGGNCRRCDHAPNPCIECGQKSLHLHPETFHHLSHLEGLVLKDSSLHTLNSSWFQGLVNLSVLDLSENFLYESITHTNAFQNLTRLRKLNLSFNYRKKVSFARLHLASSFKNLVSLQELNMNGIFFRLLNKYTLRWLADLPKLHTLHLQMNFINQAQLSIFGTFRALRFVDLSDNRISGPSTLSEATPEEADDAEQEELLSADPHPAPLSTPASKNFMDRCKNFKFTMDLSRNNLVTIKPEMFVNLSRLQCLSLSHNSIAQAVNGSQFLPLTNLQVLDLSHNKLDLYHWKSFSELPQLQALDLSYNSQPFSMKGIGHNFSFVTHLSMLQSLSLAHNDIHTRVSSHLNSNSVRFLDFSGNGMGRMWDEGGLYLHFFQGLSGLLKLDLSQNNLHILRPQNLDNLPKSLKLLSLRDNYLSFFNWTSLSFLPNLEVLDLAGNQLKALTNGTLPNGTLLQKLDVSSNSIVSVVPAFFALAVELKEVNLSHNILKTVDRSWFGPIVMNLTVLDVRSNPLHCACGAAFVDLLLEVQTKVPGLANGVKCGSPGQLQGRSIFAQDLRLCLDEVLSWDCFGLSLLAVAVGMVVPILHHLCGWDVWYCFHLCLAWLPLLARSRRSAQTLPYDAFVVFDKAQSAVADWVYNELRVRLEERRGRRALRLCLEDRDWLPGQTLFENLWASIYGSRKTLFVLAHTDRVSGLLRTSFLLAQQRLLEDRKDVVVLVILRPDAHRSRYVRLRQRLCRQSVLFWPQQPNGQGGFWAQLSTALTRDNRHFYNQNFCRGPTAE
The series is described as follows: Cytokine production and gene expression in sorted Flt3L-DC pDCs activated with CpG ODN 1585. In kind it is cell-based. The procedure:
FIG. 1: Guanabenz inhibits TLR3 and TLR9 activation in mouse Flt3-L DCs and human blood pDCs. A) Sorted bone marrow derived Flt3L-DCs were activated for 6 h with 10 μg/mL poly I:C LMW (TLR3 in DC1) or 1 μM ODN 1585 (TLR9 in pDCs). GBZ was added at 50 μM and inhibited IFN-β and Interleukin-6 (IL-6) production in activated cells. B) […], hTLR3, hTLR9 and hTLR7 expressed in the reporter HEK-Blue™ cells are inhibited by GBZ. TLR-expressing HEK-Blue™ cells were respectively activated with 100 ng/mL LPS, 10 μg/mL poly I:C LMW, 2.5 μM ODN 2006 or 5 μg/mL imiquimod, respectively. GBZ was added at 50 μM. TLR activity was measured indirectly through SEAP activity as absorbance at 405 nm. GBZ inhibited human TLR3, TLR7 and TLR9 signaling, but not TLR4._C) Human primary pDCs were isolated from blood and activated either with 3 μM CpG ODN 2216 (top) or with 2% of anti-DNA IgG containing serum from lupus patients (bottom). GBZ was added at 50 μM. Protein concentration of IFN-α and TNF-α secreted were measured at the indicated time points or at 16 h. Statistical significance was assigned using two tailed t-test on at least n=3 independent experiments (* p<0.05; ** p<0.005; ***p<0.0005).
BM-derived DCs were differentiated in vitro from the bone marrow of 6-8 weeks old male mice, using either FLT3 ligand or GM-CSF. Flt3L-DCs were used for experiments between days 6 and 7. Flt3L was produced using B16-Flt3L hybridoma cells. Bone marrow progenitors were plated at 1.5 10^6 cells/ml, 4 ml/well in 6 well plate, and cultivated with RPMI (GIBCO), 10% FCS (Sigma Aldrich), 100 units/ml penicillin and 100 μg/ml streptomycin (GIBCO), 50 μM b-mercaptoethanol (VWR) and Flt3L. For sorted Flt3L-DCs, cells were gently harvested at day 7 with cold PBS 2% FCS, centrifuged 1200 rpm 5 min at 4° C., counted and stained with for 30 mins at 4° C. Cells were sorted with the FACS ARIASorp. Cells were kept on ice all the time. […]
ODN 2006, 2216, 1585 and 1826, Poly I:C High and Low Molecular Weight are from InvivoGen, San Diego, Calif.; lipopolysaccharide (Escherichia coli 055:B5), clonidine, chloroquine, D-(+)-Galactosamine hydrochloride and 25-HC are from Sigma Aldrich; Guanabenz is from Tocris Bioscience. For quantitative PCR, total RNAs were extracted and purified using the RNeasy Mini Kit (Qiagen). […] Each gene transcripts were quantified by SYBR Green method with 7500Fast (Applied Biosystems). The relative amount of each transcript was determined by normalizing to internal housekeeping gene expression.
Mouse IFN-β quantification in culture supernatant was performed using the Mouse Interferon Beta ELISA kit (PBL InterferonSource); mouse IL-6, TNFα, IL-10, human TNFα and human IFNα were quantified using ELISA kit (eBioscience) respectively, according to manufacturer instructions. […]

The mark [1] stands for this setting: sorted pDCs, 1 μM ODN 1585 6 h, GBZ 50 μM.

“Also recorded” adds a separate entry of the source.

In the case of `NC(N)=N/N=C/c1c(Cl)cccc1Cl` [GBZ, 2-(2,6-dichlorobenzylidene)-hydrazinecarboximidamide], the “transcriptional response to CpG ODN (ifna4, Tnfa, isg15, Il12 by qPCR)” value (pDC, data not shown) is reported as “inhibited completely”. For the same molecule, the “impact on cell fitness” value (sorted cDC1 and pDCs treated with GBZ) is recorded as “without any impact”. Under setting [1], the IFN-β production result was “nearly abrogated; also recorded: inhibited” and the IL-6 production entry is listed as “nearly abrogated; also recorded: inhibited”.

Values taken from patent US20210177814A1, “USE OF GUANABENZ OR DERIVATES THEREOF FOR THE TREATMENT OF TYPE I IFN-DEPENDENT PATHOLOGIES” (INSERM (Institut National de la Santé et de la Recherche …, priority 2018, published 2021).
